According to patent US11951094B2, “TLR2 modulator compounds, pharmaceutical compositions and uses thereof” (Axial Therapeutics, Inc., priority 2020, dated 2024):

Tests used:
Format in all cases: cell-based
TLR2 [1] = molecular target: T1, TLR2 (Homo sapiens, UniProt O60603); test: TLR2 agonist screening assay, HEK-Blue TLR2 reporter cell line (NF-kB-driven SEAP, absorbance at 600 nm); set-up: host or cells: HEK-293 (HEK-Blue TLR2 reporter cell line); conditions: HEK-Blue TLR2 reporter cells, agonist mode
In short: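 HEK-293 cells expressing TLR2 with NF-kB-driven SEAP were plated at 40,000 per well. After 16-24 h, they were treated overnight with diluted agonists in detection medium (1% DMSO final). Absorbance at 600 nm was read, and EC50 values were fitted.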

TLR2 [2] = molecular target: T1, TLR2; test: TLR2 antagonist screening assay, HEK Blue hTLR2 cells, competition with diprovocim; set-up: host or cells: HEK Blue hTLR2 cells
From the text: TLRs signal through ligand-mediated dimerization or multimerization. TLR2 may partner with TLR1 or TLR6 to produce an agonist signal. Compounds that prevent agonist signaling, antagonists, may interfere with proper dimerization or with downstream signaling. The following assay was developed to identify and characterize novel TLR2 antagonists.
The in vitro TLR2 assay consists of a cell line that responds to TLR2 engagement by producing a factor that elicits a color change in the culture media and can be readily measured by various colorimetric detection methods. This assay enables the identification of existing and novel compounds that engage TLR2. Treating reporter cells with putative TLR2 antagonists will diminish the reporter response to TLR2 agonists.
TLR2 antagonists were screened for TLR2 binding and blocking with a competition assay. […] The assay was performed with Invivogen HEK Blue cells, which express the human TLR2 receptor as well as NFkB-inducible secreted Alkaline Phosphatase. Alkaline Phosphatase activity was proportional to TLR2 activation, and thus served as a colorimetric reporter.
HEK Blue hTLR2 cells (Invivogen) were grown in DMEM with 10% FBS (Seradigm). Cells were seeded at 40,000 cells/well in 96-well plates and incubated overnight to adhere. Media was replaced with 200 uL/well HEK Blue Detection Medium (Invivogen). […] Cells incubated for 16-24 hours, then absorbance at 600 nm was read on a SpectraMax M2 (Molecular Devices). […] Four parameter dose response curves were fit according to the following model, and IC50 values were reported: Y=Bottom+(Top-Bottom)/(1+(IC50/X)^HillSlope)
Where X is the antagonist concentration, Y is the normalized absorbance, Top and Bottom are the plateaus, IC50 is the concentration at half-maximal inhibition, and HillSlope is the slope factor.
• 1. HEK-Blue TLR2 cells are diluted in complete DME culture medium and plated into 96-well plates at 40,000 cells per well and cultured overnight. • 2. After 16-24 hours in culture, the media is removed and replaced with 200 microliters per well of HEK-Blue Detection media. • 3. TLR2 antagonists are diluted 100-fold from DMSO stocks into each well, yielding a final DMSO concentration of 1% in all wells. Reporter cells are treated for 1-2 hours, then treated with TLR2 agonist diluted to the EC50-70 concentration. • 4. Treated cells are cultured overnight and the following day are assayed in plate reader for Absorbance at 600 nanometer.

TLR2 [3] = molecular target: T2, TLR2 (Mus musculus, UniProt Q9QUN7); test: TLR2 functional assay, cytokine release from RAW 264.7 mouse macrophage cell line; conditions: average of all runs
T2 construct: endogenous in cells; host or cells: RAW 264.7
In short: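 RAW 264.7 cells plated (about 40,000 per well) and treated with compounds at varying concentrations for 6–24 h (or overnight). Released cytokines in supernatant (e.g. TNF-alpha, IL-1, IL-10, IL-12) measured by ELISA or MSD multiplex; EC50 fitted.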

TLR2 [4] = molecular target: T1, TLR2; test: TLR2 in vitro functional assay, cytokine release from human monocytic cell line THP-1; conditions: THP-1 human monocytic cell line, average of all runs
Procedure: Cells of the immune system respond to TLR agonists in part by secreting cytokines. Functional assays for TLR2 agonists measure cytokine release from purified immune cells or immortalized cell lines derived from immune cells. Cytokine release is measured by standard ELISA approaches or multiplexed analysis using the Meso Scale Discovery (MSD) platform.
Following assay measurements utilizing either HEK-Blue detection or cytokine release, all data is analyzed with the GraphPad Prism8 statistical package to determine EC50, binding and activity metrics for the TLR2 modulators. […]
Numerous cell lines derived from various cell types can respond to TLR2 agonists with stereotyped cytokine and chemokine secretion. In particular, cell lines derived from macrophages respond robustly to TLR2 agonists by secreting a wide array of cytokines, including (but not limited to) TNF-alpha, IL-1, IL-10 and IL-12. The human monocytic cell line THP-1, the mouse macrophage line RAW-264.7, and the rat macrophage line NR8383 were used. For each assay, the respective cell lines were plated into 96-well plates overnight and then treated the following day with various TLR2-engaging compounds at varying concentrations. The next day, supernatants were collected and assayed by multiplex immunodetection for cytokines released (MSD detection kits for respective species).
Data provided in Table 5 is generated using protocols described in Example 45 and 46.

T1 sequence (O60603 21-784): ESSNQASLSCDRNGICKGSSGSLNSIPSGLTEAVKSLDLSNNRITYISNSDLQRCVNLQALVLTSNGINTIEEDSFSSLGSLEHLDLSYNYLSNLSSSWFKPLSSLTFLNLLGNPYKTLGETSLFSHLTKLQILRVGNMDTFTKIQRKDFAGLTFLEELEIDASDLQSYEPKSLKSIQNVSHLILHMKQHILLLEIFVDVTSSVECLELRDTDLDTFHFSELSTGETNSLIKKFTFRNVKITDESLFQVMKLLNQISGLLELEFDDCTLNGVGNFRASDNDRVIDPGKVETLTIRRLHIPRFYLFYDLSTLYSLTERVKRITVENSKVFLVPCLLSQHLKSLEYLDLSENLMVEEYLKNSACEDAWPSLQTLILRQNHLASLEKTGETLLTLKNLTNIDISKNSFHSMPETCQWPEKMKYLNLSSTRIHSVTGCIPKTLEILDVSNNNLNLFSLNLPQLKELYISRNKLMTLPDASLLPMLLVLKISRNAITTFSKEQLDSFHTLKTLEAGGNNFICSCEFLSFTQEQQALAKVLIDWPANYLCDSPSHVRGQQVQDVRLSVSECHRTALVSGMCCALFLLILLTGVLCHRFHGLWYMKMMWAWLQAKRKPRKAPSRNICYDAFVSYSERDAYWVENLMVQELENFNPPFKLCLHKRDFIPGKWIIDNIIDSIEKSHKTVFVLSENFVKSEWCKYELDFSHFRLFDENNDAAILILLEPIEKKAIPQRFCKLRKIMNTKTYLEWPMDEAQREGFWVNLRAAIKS
T2 sequence (Q9QUN7 25-784): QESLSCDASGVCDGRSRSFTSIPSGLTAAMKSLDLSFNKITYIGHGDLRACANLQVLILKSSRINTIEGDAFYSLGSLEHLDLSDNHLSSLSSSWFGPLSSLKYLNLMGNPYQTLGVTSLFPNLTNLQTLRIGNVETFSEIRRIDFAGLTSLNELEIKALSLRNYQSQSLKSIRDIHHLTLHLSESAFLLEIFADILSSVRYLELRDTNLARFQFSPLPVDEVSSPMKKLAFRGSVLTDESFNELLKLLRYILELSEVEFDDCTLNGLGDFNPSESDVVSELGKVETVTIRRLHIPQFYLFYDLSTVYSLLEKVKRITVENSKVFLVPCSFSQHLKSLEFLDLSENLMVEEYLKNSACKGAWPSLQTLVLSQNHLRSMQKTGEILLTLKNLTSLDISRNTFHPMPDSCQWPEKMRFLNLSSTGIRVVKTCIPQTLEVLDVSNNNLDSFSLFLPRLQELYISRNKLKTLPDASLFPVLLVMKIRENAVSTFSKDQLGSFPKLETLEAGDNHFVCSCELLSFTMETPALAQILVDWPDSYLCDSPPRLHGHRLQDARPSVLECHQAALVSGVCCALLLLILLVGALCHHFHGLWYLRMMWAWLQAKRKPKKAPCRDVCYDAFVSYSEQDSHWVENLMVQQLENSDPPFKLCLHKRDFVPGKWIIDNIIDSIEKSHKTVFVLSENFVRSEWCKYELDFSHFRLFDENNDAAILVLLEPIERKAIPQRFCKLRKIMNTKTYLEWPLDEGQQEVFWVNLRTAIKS

CCCCCCCC(=O)N1CCCN(S(=O)(=O)c2ccc(C(=O)N3C[C@@H](C(=O)N[C@H]4C[C@@H]4c4ccccc4)[C@H](C(=O)N[C@H]4C[C@@H]4c4ccccc4)C3)cc2)CC1C(=O)NCCCCCC (single isomer, unassigned) [Compound 203, (3S,4S)-1-(4-(((R*)-3-(hexylcarbamoyl)-4-octanoyl-1,4-diazepan-1-yl)sulfonyl)benzoyl)-N3,N4-bis((1S,2R)-2-phenylcyclopropyl)pyrrolidine-3,4-dicarboxamide]
EC50 (TLR2 [1]; average of all runs (Table 4)): > 1000 nM | IC50 (TLR2 [2]): 351 to 1000 nM

CCCCCCCCCCCCCCNC(=O)C1CN(C(=O)c2ccc(C(=O)N3C[C@@H](C(=O)N[C@H]4C[C@@H]4c4ccccc4)[C@H](C(=O)N[C@H]4C[C@@H]4c4ccccc4)C3)cc2)C1 [Compound 007]
EC50 (TLR2 [1]; average of all runs (Table 3)): > 1000 nM | IC50 (TLR2 [2]): 351 to 1000 nM

CCCCCCCCCCCCCCC(=O)NC1CCN(C(=O)c2ccc(C(=O)N3C[C@@H](C(=O)N[C@H]4C[C@@H]4c4ccccc4)[C@H](C(=O)N[C@H]4C[C@@H]4c4ccccc4)C3)cc2)CC1 [Compound 008]
EC50 (TLR2 [1]; average of all runs (Table 3)): > 1000 nM | IC50 (TLR2 [2]): 351 to 1000 nM

CCCCCCCCCCCCCCNC(=O)C1CN(C(=O)c2ccc(C(=O)N3C[C@@H](C(=O)N[C@H]4C[C@@H]4c4ccccc4)[C@H](C(=O)N[C@H]4C[C@@H]4c4ccccc4)C3)cc2)CCN1C(C)=O (stereo partly shown) [Compound 024]
EC50 (TLR2 [1]; average of all runs (Table 3)): > 1000 nM | IC50 (TLR2 [2]): 351 to 1000 nM

CCCCCCCC(=O)N1CCN(S(=O)(=O)c2ccc(C(=O)N3C[C@@H](C(=O)N[C@H]4C[C@@H]4c4ccccc4)[C@H](C(=O)N[C@H]4C[C@@H]4c4ccccc4)C3)cc2)CC1C(=O)NCCCCCC (stereo partly shown) [Compound 053]
EC50 (TLR2 [1]; average of all runs (Table 3)): > 1000 nM | IC50 (TLR2 [2]): 351 to 1000 nM

O=C(N[C@H]1C[C@@H]1c1ccccc1)[C@@H]1CN(C(=O)C23CCC(C(=O)N4C[C@@H](C(=O)N[C@H]5C[C@@H]5c5ccccc5)[C@H](C(=O)N[C@H]5C[C@@H]5c5ccccc5)C4)(CC2)CC3)C[C@H]1C(=O)N[C@H]1C[C@@H]1c1ccccc1 [Compound 077, (3S,3'S,4S,4'S)-1,1′-(bicyclo [2.2.2]octane-1,4-dicarbonyl) bis (N3,N4-bis((1S,2R)-2-phenylcyclopropyl)pyrrolidine-3,4-dicarboxamide)]
EC50 (TLR2 [1]; average of all runs (Table 4)): > 1000 nM | IC50 (TLR2 [2]): 351 to 1000 nM

CCCCCCCCCCCCCCC(=O)N[C@H]1CN(C(=O)c2ccc(C(=O)N3C[C@@H](C(=O)N[C@H]4C[C@@H]4c4ccccc4)[C@H](C(=O)N[C@H]4C[C@@H]4c4ccccc4)C3)cc2)C[C@@H]1OC [Compound 101, (3S,4S)-1-(4-((3S,4S)-3-methoxy-4-pentadecanamidopyrrolidine-1-carbonyl)benzoyl)-N3,N4-bis((1S,2R)-2-phenylcyclopropyl) pyrrolidine-3,4-dicarboxamide]
EC50 (TLR2 [3]): > 1000 nM | EC50 (TLR2 [4]): 0.1 to 50 nM | EC50 (TLR2 [1]; average of all runs (Table 4)): 0.1 to 50 nM

CCCCCCCCCCCCCCNC(=O)[C@@H]1CN(C(=O)c2ccc(C(=O)N3C[C@@H](C(=O)N[C@H]4C[C@@H]4c4ccccc4)[C@H](C(=O)N[C@H]4C[C@@H]4c4ccccc4)C3)cc2)C[C@H]1OC [Compound 109, (3S,4S)-1-(4-((3S,4R)-3-methoxy-4-(tetradecylcarbamoyl)pyrrolidine-1-carbonyl)benzoyl)-N3,N4-bis((1S,2R)-2-phenylcyclopropyl)pyrrolidine-3,4-dicarboxamide]
EC50 (TLR2 [3]): > 1000 nM | EC50 (TLR2 [4]): 0.1 to 50 nM | EC50 (TLR2 [1]; average of all runs (Table 4)): 0.1 to 50 nM

CCCCCCCC(=O)N1CCN(S(=O)(=O)c2ccc(C(=O)N3C[C@@H](C(=O)N[C@H]4C[C@@H]4c4ccccc4)[C@H](C(=O)N[C@H]4C[C@@H]4c4ccccc4)C3)cc2)C[C@H]1C(=O)NCCCCCC [Compound 160, (3S,4S)-1-(4-(((S)-3-(hexylcarbamoyl)-4-octanoylpiperazin-1-yl)sulfonyl)benzoyl)-N3,N4-bis((1S,2R)-2-phenylcyclopropyl)pyrrolidine-3,4-dicarboxamide]
EC50 (TLR2 [1]; average of all runs (Table 4)): > 1000 nM | IC50 (TLR2 [2]): 351 to 1000 nM

CCCCCCCCCCCCCCNC(=O)[C@@H]1CN(C(=O)c2ccc(C(=O)N3C[C@@H](C(=O)N[C@H]4C[C@@H]4c4ccccc4)[C@H](C(=O)N[C@H]4C[C@@H]4c4ccccc4)C3)cc2)CCN1C(C)=O [Compound 162, (3S,4S)-1-(4-((S)-4-acetyl-3-(tetradecylcarbamoyl)piperazine-1-carbonyl)benzoyl)-N3,N4-bis((1S,2R)-2-phenylcyclopropyl) pyrrolidine-3,4-dicarboxamide]
EC50 (TLR2 [1]; average of all runs (Table 4)): > 1000 nM | IC50 (TLR2 [2]): 1 to 350 nM

CCCCCCN1C(=O)[C@H](CNC(=O)c2ccc(C(=O)N3C[C@@H](C(=O)N[C@H]4C[C@@H]4c4ccccc4)[C@H](C(=O)N[C@H]4C[C@@H]4c4ccccc4)C3)cc2)NC(=O)[C@@H]1CCCCC [Compound 176, (3S,4S)-1-(4-((((2S,5S)-4-hexyl-3,6-dioxo-5-pentylpiperazin-2-yl)methyl)carbamoyl)benzoyl)-N3,N4-bis((1S,2R)-2-phenylcyclopropyl)pyrrolidine-3,4-dicarboxamide]
EC50 (TLR2 [1]; average of all runs (Table 4)): > 1000 nM | IC50 (TLR2 [2]): 1 to 350 nM

CCCCCCCCCCCCCCN1CC(=O)N[C@@H](CNC(=O)c2ccc(C(=O)N3C[C@@H](C(=O)N[C@H]4C[C@@H]4c4ccccc4)[C@H](C(=O)N[C@H]4C[C@@H]4c4ccccc4)C3)cc2)C1=O [Compound 177, (3S,4S)-1-(4-((((S)-3,6-dioxo-4-tetradecylpiperazin-2-yl)methyl)carbamoyl)benzoyl)-N3,N4-bis((1S,2R)-2-phenylcyclopropyl)pyrrolidine-3,4-dicarboxamide]
EC50 (TLR2 [1]; average of all runs (Table 4)): > 1000 nM | IC50 (TLR2 [2]): 1 to 350 nM

O=C(N[C@H]1C[C@@H]1c1ccccc1)[C@@H]1CN(C(=O)c2ccc(C(=O)N3CC[C@@H](n4cnc(-c5ccc(C(F)(F)F)cc5)c4)C3)cc2)C[C@H]1C(=O)N[C@H]1C[C@@H]1c1ccccc1 [Compound 277]
EC50 (TLR2 [1]; average of all runs (Table 4)): > 1000 nM | IC50 (TLR2 [2]): 1 to 350 nM
